Measurements from patent publication US20070117849A1, “Alfavbeta3 and alfavbet6 integrin antagonists as antifibrotic agents” (priority 2003, published 2007).

Tests used:
[1] = tested on: secondary biliary liver fibrosis; experiment: Rat fibrosis model of bile duct occlusion (secondary biliary liver fibrosis); assay type: in vivo; details: after 5-6 weeks of bile duct occlusion, pilot experiments
Procedure: Animal experimentation: Male adult Wistar rats, average weight 206±19 g, underwent the following microsurgical procedure under an operating microscope (OPMI 6-S, Zeiss, Germany) (45-47): 1. midline abdominal incision following anesthesia with 100 mg/kg ketamine-hydrochloride (Ketanest®, Parke-Davis, Germany) and 10 mg/kg 5,6-dihydro-2-(2,6-xylidino)-4H-1,3-thiazine-hydrochloride (Rompun®, Bayer, Germany); 2. dissection of the common bile duct, insertion of a teflon catheter (Abbocath®-T 26 G, Venisystems, USA) and placement of a distal complete and a proximal incomplete ligature with 5-0 silk (Perma-hand®, Ethicon, Germany); 3. retrograde injection of sodium-amidotrizoate (Ethibloc®, Ethicon Germany) at a dose of […] body weight; 4. removal of the catheter, closure of the proximal ligature, scission of the bile duct between the ligatures and wound closure. After bile duct occlusion (BDO), animals received normal chow (Altromin®, Lage, Germany) and were allowed free access to water. […]
(§1) To investigate whether the […] integrin inhibitor had any effect on ECM expression in HSC/MF mRNA, expression of a spectrum of the major pro- and anti-fibrogenic molecules like procollagen α1(I) I, TGFβ1, TGFβ2, MMP-3, MMP-13, MMP-2, connective tissue growth factor (CTGF) and TIMP-1 was measured by Real-Time PCR. […]

primary rat HSC/MF = experiment: Scratch assay (cell migration), primary rat HSC/MF; assay type: cell-based
Procedure: Briefly, the liver was perfused in situ through the portal vein using a 16-18 G cannula with calcium-free HBSS (Gybco, UK) for S min followed by 0,1% Pronase E (Sigma) and subsequently 0.025% type IV collagenase (Sigma) in Dulbecco's modified Eagle's medium for 10-15 min each. The digested liver was excised, gently minced and incubated further with 0.04% pronase, 0,025% collagenase, 0,002% DNAse (Sigma) in Dulbecco's modified Eagle's medium, supplemented with 25 mM HEPES at 37° C. for 10-30 min with gentle agitation. After filtration through 100 μm nylon gauze, parenchymal cells were removed by low speed centrifugation. The HSC fraction was collected from the gradient interface after enrichment by a two-step centrifugation through a 11 and 13% gradient of Nycodenz (Sigma) at 1500 g for 15 min without braking, and plated at a density 0.5×10^6/cm^2 in DMEM supplemented with 10% FCS, penicillin and streptomycin. Medium was changed after 24 h, and further every 48 hours. Viability of the isolated cells was assessed by Trypan Blue exclusion and was routinely greater then 95-98%. Purity of HSC isolates was confirmed by their typical morphological appearance: lipid-droplets in the cytoplasm showing greenish autofluorescence at 390 nm excitation and star-like shape. Contamination with Kupffer cells was assessed by the ability to engulf 3 μm latex beads and was below 3-5% after isolation, and almost undetectable after the 1st passage. For experiments cells were used between the 1st and 3rd passage, if not stated otherwise.
(§2) Scratch assay: Cell migration was estimated by measuring the reduction of scratch area. Cells were seeded on a 24-well plate at a density of 60,000 cells/well. After reaching confluency cells were starved in serum-free medium for 24 h before making a scratch through the cell monolayer using a sterile pipet tip. After wounding cells were pre-treated by the αvβ3-integrin inhibitor at increasing concentrations (10^−10M-10^−6M) for 30 min and then treated by PDGF-BB at a concentration of 10 ng/ml in the absence of serum. The reduction of scratch area was measured at three different points per well using a special ocular with net-micrometer after […].
(§3) All experiments were performed in cell culture with the myofibroblasts-like cell line CFSC-2G (HSC cell line derived from cirrhotic rat liver) and primary rat HSC/MF. To investigate the effect of the αvβ3 integrin inhibitor on cell migration cells were seeded on 24 well plates and after reaching confluence starved in the absence of FCS for 24 h. Scratches were done and the cells treated with PDFG-BB at 10 ng/ml in the presence or absence of the αvβ3 inhibitor at 10^−6-−10^9 M. The rate of migration was measured after 17-20 h as a reduction of initial scratch width. […]

CTGF = experiment: Real-Time PCR of CTGF expression in CFSC-2G cells; assay type: cell-based, rat; details: PDGF-BB 10 ng/ml 24 h, inhibitor 10^−6-10^−8 M, dose-dependent, maximum of inhibition at 10^−6 M
Procedure: (§4) Real-Time PCR Total RNA was isolated from the cell lysates using the RNApure commercial kit (PeqLab, Erlangen, Germany) according to the manufacturer's recommendations. Template cDNA was obtained by reverse transcription of […] of total RNA.
(§5) Relative transcript levels were quantified by real time RT-PCR using the LightCycler system (Roche), using 1,5 μl of template cDNA dilution in a total reaction volume of 15 μl that included Taq DNA-Polymerase, dNTP-mix, reaction buffer, and 3.0 mM MgCl2 provided by the “LightCycler FastStart DNA Master Hybridization Probes Kit” (Roche Molecular Biochemicals, Mannheim, Germany) according to the manufactor's instructions. For every measured transcript a 1:2 to 1:32 dilution series of one sample was used as standard. Data were analyzed with the LightCycler software using the “proportional second derivative maximum” option. The housekeeping genes beta-2 microglobulin or GAPDH were amplified in a parallel reaction for normalization of the results. […]
as §1

CFSC-2G cells = experiment: Scratch assay (cell migration), CFSC-2G cells; assay type: cell-based, rat; details: PDGF-BB 10 ng/ml, 17-20 h
Procedure: In addition the HSC cell lines CFSC-2G (moderately activated, kind gift of Dr. M. Rojkind, Washington DC, USA) were used.
as §2, §3

[2] = tested on: procollagen α1(I), TGFβ1, TGFβ2, MMP-3, MMP-13, MMP-2, TIMP-1; experiment: Real-Time PCR of other pro- and anti-fibrogenic molecules in HSC/MF; assay type: cell-based, rat; details: PDGF-BB 10 ng/ml 24 h; data not shown
Procedure: as §4, §5, §1

HSC/MF = experiment: BrdU incorporation (cell proliferation, de novo DNA synthesis); assay type: cell-based, rat
Procedure: Briefly, the liver was perfused in situ through the portal vein using a 16-18 G cannula with calcium-free HBSS (Gybco, UK) for S min followed by 0,1% Pronase E (Sigma) and subsequently 0.025% type IV collagenase (Sigma) in Dulbecco's modified Eagle's medium for 10-15 min each. The digested liver was excised, gently minced and incubated further with 0.04% pronase, 0,025% collagenase, 0,002% DNAse (Sigma) in Dulbecco's modified Eagle's medium, supplemented with 25 mM HEPES at 37° C. for 10-30 min with gentle agitation. After filtration through 100 μm nylon gauze, parenchymal cells were removed by low speed centrifugation. […] Viability of the isolated cells was assessed by Trypan Blue exclusion and was routinely greater then 95-98%. […] Contamination with Kupffer cells was assessed by the ability to engulf 3 μm latex beads and was below 3-5% after isolation, and almost undetectable after the 1st passage. […]
BrdU incorporation: To assess cell proliferation de novo DNA synthesis was determined as BrdU incorporation. […] During last […] of incubation cells were pulse-labeled with BrdU and its incorporation measured using an ELISA kit (Roche) and a micro-plate reader. […]

SMILES | reduction of total liver collagen [1] | inhibition of migration at reduced concentrations of FCS (primary rat HSC/MF; FCS 0,25%, data not shown) | cell migration stimulated by FCS (primary rat HSC/MF; HSC/MF, FCS-stimulated, inhibitor 10^−10-10^−6 M, 20 h) | PDGF-BB induced cell migration into the scratch area (primary rat HSC/MF; primary rat HSC/MF, PDGF-BB 10 ng/ml, inhibitor 10^-9-10^-6 M, 17-20 h, dose-dependent) | PDGF-BB induced cell migration at 10^−6 M (primary rat HSC/MF; primary rat HSC/MF, PDGF-BB 10 ng/ml, inhibitor 10^−6 M, 17-20 h) | CTGF expression (CTGF) | PDGF-BB induced cell migration into the scratch area (CFSC-2G cells; inhibitor 10^-9-10^-6 M, dose-dependent) | PDGF-BB induced cell migration at 10^−6 M (CFSC-2G cells; inhibitor 10^−6 M) | transcripts levels of other ECM molecules [2] | serum-stimulated cell proliferation (HSC/MF; 10% FCS, inhibitor 10^−6-10^−8 M) | PDGF-BB stimulated cell proliferation (HSC/MF; all cell types, PDGF-BB 10 ng/ml, inhibitor 10^−8-10^−6 M, 24 h)
O=C(O)CC(NC(=O)C(COCc1ccccc1)NC(=O)CCCCNc1ccccn1)c1cc(Cl)cc(Cl)c1 (centres unmarked) [EMD 409849, 3-{3-Benzyloxy-2-[5-(pyridin-2-ylamino)-pentanoylamino]-propanoylamino}-3-(3,5-dichloro-phenyl)-propionic acid] | 50-70% | – | – | – | – | – | – | – | – | – | –
CNc1cccc(CCOc2ccc3c(C(CC(=O)O)c4ccc5nsnc5c4)c[nH]c3c2)n1 (centres unmarked) [EMD 409915, 3-Benzo[1,2,5]thiadiazol-5-yl-3-{6-[2-(6-methylamino-pyridin-2-yl)-ethoxy]-1H-indol-3-yl}-propionic acid] | – | did not show any significant inhibition | no effect | strongly inhibited | Complete abrogation | downregulated | strongly inhibited | Complete abrogation | no change | absence of effect | did not have any effect
